The values below come from patent publication US8697714B2, “Quinazolinone based fluorogenic probes” (Nanyang Technological University, priority 2010, dated 2014).

A short description of series [1]: Stability of substrates in aqueous solutions. The class given is physicochemical. Conditions: before MAO enzymatic oxidation. From the text: (§1) The activity of these three probes (MAO-HPQ 1˜3) towards both MAO isozymes were investigated by in vitro fluorescent measurements. All the MAO substrates 1, 2, and 3 were very stable in aqueous solutions and were almost non-fluorescent before MAO enzymatic oxidation due to the alkylation of the 2′-hydroxyl group in the 2-(2′-hydroxy-5′-chlorophenyl)-6-chloro-4(3H)-quinazolinone fluorophore.

Series [2] addresses T1, monoamine oxidase B (Homo sapiens, UniProt P27338).
T1 construct: purchased Sigma Aldrich
T1 sequence (P27338 1-520): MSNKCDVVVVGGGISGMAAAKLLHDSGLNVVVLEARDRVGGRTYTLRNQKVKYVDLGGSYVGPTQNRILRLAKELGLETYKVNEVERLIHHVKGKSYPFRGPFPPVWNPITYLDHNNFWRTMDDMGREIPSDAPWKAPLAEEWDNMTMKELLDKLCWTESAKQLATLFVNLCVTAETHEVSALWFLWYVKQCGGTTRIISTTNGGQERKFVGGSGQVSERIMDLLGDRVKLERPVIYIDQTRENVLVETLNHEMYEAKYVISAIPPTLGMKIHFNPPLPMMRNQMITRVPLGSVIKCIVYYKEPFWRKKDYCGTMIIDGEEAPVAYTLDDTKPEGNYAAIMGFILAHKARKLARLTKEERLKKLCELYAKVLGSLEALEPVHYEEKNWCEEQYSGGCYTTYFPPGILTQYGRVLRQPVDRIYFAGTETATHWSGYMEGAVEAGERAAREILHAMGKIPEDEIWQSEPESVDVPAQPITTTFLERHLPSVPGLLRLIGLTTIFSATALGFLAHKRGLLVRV
As to the kind of experiment: Fluorescent enhancement of MAO substrates after incubation with MAO B. The format is biochemical. Conditions: MAO B 10 μg/ml, substrate 200 μM, 37° C., 2 hours, emission 530 nm. The procedure: (§2) Activity of fluorogenic MAO-HPQ 1, 2 and 3 were determined by the fluorescence intensity after incubations separately with monoamine oxidase A or B at 37° C. for 2 hours. Typically, 5 μl of MAO A and B enzyme solution (final concentration of 10 μg/ml) was incubated with MAO substrates 1, 2 and 3 (final concentration of 200 μM) in a 100 mM Tris-HCl buffer, pH 7.90, 5% glycerol and 5% DMSO. After 2 hours of incubation, the fluorescent enhancement was monitored by Fluorescence spectrophotometer with excitation wavelength at 360 nm.
as §1
(§3) The ratio of fluorescent intensity in the presence and absence of MAO enzymes were used to estimate MAO activities.

For series [3], the target named is T2, monoamine oxidase A (Homo sapiens, UniProt P21397).
T2 construct: purchased Sigma Aldrich
T2 sequence (P21397 1-527): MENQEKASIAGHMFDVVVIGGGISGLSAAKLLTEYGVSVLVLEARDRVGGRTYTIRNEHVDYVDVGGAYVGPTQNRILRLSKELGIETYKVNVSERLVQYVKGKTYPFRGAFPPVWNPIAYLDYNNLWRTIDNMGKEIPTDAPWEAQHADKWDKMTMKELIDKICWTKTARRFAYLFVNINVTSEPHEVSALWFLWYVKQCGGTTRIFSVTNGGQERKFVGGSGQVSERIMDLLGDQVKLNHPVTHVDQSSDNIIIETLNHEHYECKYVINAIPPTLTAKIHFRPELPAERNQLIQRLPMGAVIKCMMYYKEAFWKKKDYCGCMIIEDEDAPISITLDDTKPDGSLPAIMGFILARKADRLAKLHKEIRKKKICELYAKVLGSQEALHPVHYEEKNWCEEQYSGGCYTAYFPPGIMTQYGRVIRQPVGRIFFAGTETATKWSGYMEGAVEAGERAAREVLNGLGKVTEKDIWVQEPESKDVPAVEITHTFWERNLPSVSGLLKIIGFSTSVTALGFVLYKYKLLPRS
In words: Fluorescent enhancement of MAO substrates after incubation with MAO A. The format is biochemical. The following applies: MAO A 10 μg/ml, substrate 200 μM, 37° C., 2 hours, emission 530 nm. The procedure: as §2, §1, §3

Series [4] relates to MAO activity in PC12 cells. In words: Inhibition imaging: PC12 cells pre-treated with inhibitor, then MAO-HPQ 1. The class given is cell-based, Rattus norvegicus. Conditions: 100 μM inhibitor pre-treatment, then 100 μM MAO-HPQ 1, 37° C., 1 h. As to the method:
In the inhibition investigation, the live PC12 cell lines were washed twice with DMEM and pre-treated separately with 100 μM Clorgyline and Pargyline in DMEM for 1 hour in an incubator at 37° C. MAO-HPQ 1 was then added to the μ-dish with the final concentration of 100 μM and incubated for another 1 hour at 37° C. The cells were then washed twice with Hank's Balanced Salt solution. The fluorescence imaging was acquired with the Confocal fluorescence microscope.
Further imaging investigations were conducted by utilizing two commonly used inhibitors: Clorgyline for MAO A and Pargyline for MAO B. The PC12 cells were pre-treated separately with 100 μM of MAO A inhibitor clorgyline and MAO B inhibitor pargyline, and then incubated with 100 μM of MAO-HPQ probe 1 at 37° C. for 1 h. […] This is in accordance with the in vitro enzyme inhibition tests (FIG. 5). MAO-HPQ 1 indicates less toxicity (FIG. 6) and thereby can be used as a new probe for real-time imaging of MAO activity in living cells.

Series [5] relates to MAO activity in PC12 cells. In words: Imaging of MAO activity in living PC12 cells. The class given is cell-based, Rattus norvegicus. The following applies: 100 μM, 37° C., 1 h. As to the method: (§4) PC12 cell (Rattus norvegicus, adrenal gland) was bought from American Type Culture Collection (ATCC Cat No: CR-1721) and maintained in F-12K medium (ATCC, Manassas Va.) containing 10% FBS (Invitrogen, Burlington, Canada). PC12 cell line were seeded at a density of 2×10^5 in a 35 mm diameter μ-dish plastic bottom (ibidi GmbH, Germany) and cultured for 2 days with Nerve Growth Factor (2.5S, 30 ng/mL, Invitrogen, Carlsbad, Calif.)^[2] in Dulbecco's Modified Eagle Medium (DMEM 1×, without phenol red, Gibco/Invitrogen, Carlsbad, Calif.) containing 4.5 g/L D-glucose, 2 mM GlutaMax-1 (Invitrogen). Control C6 glioma cell line was bought from American Type Culture Collection (ATCC Cat No.: CCL-107) and cultured with the same protocol as PC12 cell lines). After 2 days of culture, the live PC12 and C6 glioma cell lines were washed twice with DMEM. The live cells were then treated separately with 100 μM of MAO-HPQ 1 in DMEM (containing 0.5% of DMSO) and incubated for 1 hour in an incubator at 37° C. The cells were washed twice with Hank's Balanced Salt solution (Sigma). The fluorescence imaging was acquired with a Confocal fluorescence microscope (Nikon, Eclipse TE2000-E) using a super high pressure mercury lamp (Nikon, TE2-PS100W) with excitation filter: 360/40 nm; emission filter: 535/40 nm.
(§5) PC12 cell line was chosen owing to its high expression of MAO. […]

Series [6] deals with PC12 cell line. As to the kind of experiment: Cell viability, standard MTT assay. The class given is cell-based, Rattus norvegicus. The following applies: FIG. 6. The procedure:
FIG. 6 illustrates the cell viability of substrate MAO-HPQ 1 (2-(5′-chloro-2′-(3-aminopropoxy)phenyl)-6-chloro-4(3H)-quinazolinone) and 2-(2′-hydroxy-5′-chlorophenyl)-6-chloro-4(3H)-quinazolinone (indicated as HPQ″) in PC12 cell line. As a Control, cells were treated with 5% of DMSO only.
the cytotoxicity activity of MAO-HPQ 1 was evaluated by the standard MTT assay as previously described in Y. H. Choi et al, J. Control. Rel., 1998, 54, 39-48. MAO-HPQ 1 indicates less toxicity and thereby can be used as a probe for real-time imaging of MAO activity in living cells (FIG. 6).
(Tetrazolium dyes change colour on reduction, which living cells bring about.)

The subject of series [7] is C6 glioma cells. In words: Imaging in living C6 glioma cells (negative control, no MAO expression). The class given is cell-based. Conditions: 100 μM, 37° C., 1 h. As to the method: as §4, §5

SMILES strings stand for the structures.

As to `CN(C)CCCOc1ccc(Cl)cc1-c1nc2ccc(Cl)cc2c(=O)[nH]1` [MAO-HPQ 3, 2-(5′-chloro-2′-(3-(N,N′-dimethylamino)propoxy)phenyl)-6-chloro-4(3H)-quinazolinone], the “stability in aqueous solutions” value in series [1] was “very stable”. The “maximum fluorescent enhancement (ratio of fluorescent intensity in the presence and absence of MAO enzyme)” value turned out to be 7 fold in series [2] and 5 fold in series [3].

Regarding `C#CCN(C)Cc1ccccc1` [pargyline, Pargyline], the “fluorescence of PC12 cells pre-treated with inhibitor (MAO inhibition in living cells)” value in series [4] is listed as “strong fluorescence similar to the imaging result without inhibitor treatment”.

For `C#CCN(C)CCCOc1ccc(Cl)cc1Cl` [clorgyline, Clorgyline], the “fluorescence of PC12 cells pre-treated with inhibitor (MAO inhibition in living cells)” value in series [4] is given as “no obvious fluorescence”.

Take `NCCCOc1ccc(Cl)cc1-c1nc2ccc(Cl)cc2c(=O)[nH]1` [MAO-HPQ 1, 2-(5′-chloro-2′-(3-aminopropoxy)phenyl)-6-chloro-4(3H)-quinazolinone]: the “fluorescence in live cell imaging” value in series [5] was “bright fluorescence signals”; in series [7], “little”. The “stability in aqueous solutions” value in series [1] is “very stable”. For the same compound, the “maximum fluorescent enhancement (ratio of fluorescent intensity in the presence and absence of MAO enzyme)” value stood at 300 fold in series [2] and 307 fold in series [3]. Moreover, the “cytotoxicity activity (MTT)” value in series [6] is given as “less toxicity”.

In the case of `CNCCCOc1ccc(Cl)cc1-c1nc2ccc(Cl)cc2c(=O)[nH]1` [MAO-HPQ 2, 2-(5′-chloro-2′-(3-(N-methylamino)propoxy)phenyl)-6-chloro-4(3H)-quinazolinone], the “stability in aqueous solutions” value in series [1] is on record as “very stable”. The “maximum fluorescent enhancement (ratio of fluorescent intensity in the presence and absence of MAO enzyme)” value in series [2] is listed as 20 fold; in series [3] it was 15 fold.
